Experimental data from patent US7763627B2, “Tie-2 modulators and methods of use” (Exelixis, Inc., priority 2003, dated 2010).

Biological target: Tie-2 (Homo sapiens, UniProt Q02763)
Experiment: Tie-2 tyrosine kinase inhibition (ATP consumption by luciferase/luciferin chemiluminescence or 33P-ATP incorporation into pEY substrate)
Format: biochemical
Details: human enzyme Tie-2; inhibition given as class symbol
Procedure: Tyrosine kinase activity is determined by 1) measurement of kinase-dependent ATP consumption by in the presence of a generic substrate such as polyglutamine, tyrosin (pEY), by luciferase/luciferin-mediated chemiluminescence or; 2) incorporation of radioactive phosphate derived from ^33P-ATP into a generic substrate which has been adsorbed onto the well surface of polystyrene microtiter plates. Phosphorylated substrate products are quantified by scintillation spectrometry.
Inhibition is indicated as IC50 with following key: A=IC50 less than 50 nM, B=IC50 greater than 50 nM, but less than or equal to 1000 nM, C=IC50 greater than 1000 nM, but less than 10,000 nM, and D=IC50 10,000 nM or greater. The abbreviation for human enzyme, Tie-2, is defined as tyrosine kinase with immunoglobulin and EGF repeats.

Tie-2, sequence (Q02763 23-1124): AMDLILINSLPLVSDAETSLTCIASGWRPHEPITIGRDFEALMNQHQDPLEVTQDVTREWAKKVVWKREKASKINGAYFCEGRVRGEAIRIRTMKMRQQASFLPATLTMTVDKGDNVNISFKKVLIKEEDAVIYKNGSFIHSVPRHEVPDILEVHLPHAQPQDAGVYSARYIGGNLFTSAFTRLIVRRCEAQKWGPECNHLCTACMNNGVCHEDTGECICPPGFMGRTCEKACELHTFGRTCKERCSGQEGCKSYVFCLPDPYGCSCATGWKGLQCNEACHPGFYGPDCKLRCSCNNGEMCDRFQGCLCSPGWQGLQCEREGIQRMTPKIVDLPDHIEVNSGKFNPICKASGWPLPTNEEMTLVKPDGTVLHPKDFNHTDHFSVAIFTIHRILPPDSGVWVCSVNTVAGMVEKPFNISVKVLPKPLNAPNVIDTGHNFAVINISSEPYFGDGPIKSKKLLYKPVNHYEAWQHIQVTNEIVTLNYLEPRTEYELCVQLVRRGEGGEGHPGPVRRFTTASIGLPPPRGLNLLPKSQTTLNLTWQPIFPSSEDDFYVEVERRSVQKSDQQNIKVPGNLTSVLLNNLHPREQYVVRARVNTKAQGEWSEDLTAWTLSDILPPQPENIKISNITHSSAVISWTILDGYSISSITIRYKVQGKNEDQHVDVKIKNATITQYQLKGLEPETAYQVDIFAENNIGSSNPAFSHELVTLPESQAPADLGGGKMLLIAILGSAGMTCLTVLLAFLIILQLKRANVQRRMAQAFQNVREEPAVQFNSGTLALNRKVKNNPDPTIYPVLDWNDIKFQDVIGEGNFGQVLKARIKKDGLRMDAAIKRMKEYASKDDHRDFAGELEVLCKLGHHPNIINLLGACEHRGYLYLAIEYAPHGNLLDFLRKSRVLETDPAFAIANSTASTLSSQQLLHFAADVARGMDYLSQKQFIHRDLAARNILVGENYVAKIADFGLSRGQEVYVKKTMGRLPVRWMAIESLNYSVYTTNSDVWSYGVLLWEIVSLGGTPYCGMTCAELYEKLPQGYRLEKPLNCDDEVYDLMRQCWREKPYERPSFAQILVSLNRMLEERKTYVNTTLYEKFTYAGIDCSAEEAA

| SMILES | IC50 [µM] |
| --- | --- |
| OC[C@@H](Nc1nc(-c2ccncc2)nc2ccccc12)c1ccccc1 [Compound 55, (2S)-2-phenyl-2-[(2-pyridin-4-ylquinazolin-4-yl)amino]ethanol] | 1 to 10 |
| c1ccc2c(NCCN3CCNCC3)nc(-c3ccncc3)nc2c1 [Compound 32, N-(2-piperazin-1-ylethyl)-2-pyridin-4-ylquinazolin-4-amine] | ≥ 10 |
| c1ccc2c(NC3CCCCC3)nc(-c3ccncc3)nc2c1 [Compound 1, N-cyclohexyl-2-pyridin-4-ylquinazolin-4-amine] | 1 to 10 |
| OCCN(Cc1ccccc1)c1nc(-c2ccncc2)nc2ccccc12 [Compound 62, 2-[(phenylmethyl)(2-pyridin-4-ylquinazolin-4-yl)amino]ethanol] | 1 to 10 |
| O[C@@H]1CCCC[C@H]1Nc1nc(-c2cccnc2)nc2ccccc12 [Compound 36, (1R,2R)-2-[(2-pyridin-3-ylquinazolin-4-yl)amino]cyclohexanol] | ≥ 10 |
| O[C@@H]1CCC[C@H]1Nc1nc(-c2cccnc2)nc2ccccc12 [Compound 35, (1R,2R)-2-[(2-pyridin-3-ylquinazolin-4-yl)amino]cyclopentanol] | ≥ 10 |
| c1ccc2c(N3CCNCC3)nc(-c3ccncc3)nc2c1 [Compound 13, 4-piperazin-1-yl-2-pyridin-4-ylquinazoline] | ≥ 10 |
| OCCNc1nc(-c2ccncc2)nc2ccccc12 [Compound 5, 2-[(2-pyridin-4-ylquinazolin-4-yl)amino]ethanol] | ≥ 10 |
| OCCN1CCN(Nc2nc(-c3ccncc3)nc3ccccc23)CC1 [Compound 66, 2-{-4-[(2-pyridin-4-ylquinazolin-4-yl)amino]piperazin-1-yl}ethanol] | ≥ 10 |

Results, then the molecule that gave them:

| IC50 [µM] | SMILES |
| --- | --- |
| 1 to 10 | c1ccc2c(NC3CCCC3)nc(-c3ccncc3)nc2c1 [Compound 3, N-cyclopentyl-2-pyridin-4-ylquinazolin-4-amine] |
| 1 to 10 | c1ccc2c(c1)CC[C@H]2Cc1nc(-c2ccncc2)nc2ccccc12 [Compound 16, 4-[(1S)-2,3-dihydro-1H-inden-1-ylmethyl]-2-pyridin-4-ylquinazoline] |
| ≥ 10 | CCc1cc(-c2nc(N[C@@H]3c4ccccc4C[C@@H]3O)c3ccccc3n2)ccn1 [Compound 44, (1R,2S)-1-{[2-(2-ethylpyridin-4-yl)quinazolin-4-yl]amino}-2,3-dihydro-1H-inden-2-ol] |
| ≥ 10 | c1ccc2c(NCCN3CCCC3)nc(-c3ccncc3)nc2c1 [Compound 2, 2-pyridin-4-yl-N-(2-pyrrolidin-1-ylethyl)quinazolin-4-amine] |
| < 0.05 | Cc1ccc2c(N[C@H]3c4ccccc4C[C@H]3O)nc(-c3ccncc3)nc2c1 [Compound 51, (1S,2R)-1-[(7-methyl-2-pyridin-4-ylquinazolin-4-yl)amino]-2,3-dihydro-1H-inden-2-ol] |
| ≥ 10 | CCc1cc(-c2nc(N[C@H]3c4ccccc4C[C@H]3O)c3ccccc3n2)ccn1 [Compound 43, (1S,2R)-1-{[2-(2-ethylpyridin-4-yl)quinazolin-4-yl]amino}-2,3-dihydro-1H-inden-2-ol] |
| 1 to 10 | CC(C)Oc1ccc(Nc2nc(-c3ccncc3)nc3ccccc23)cc1 [Compound 25, N-{4-[(1-methylethyl)oxy]phenyl}-2-pyridin-4-ylquinazolin-4-amine] |
| ≥ 10 | OC[C@@H](Cc1ccccc1)Nc1nc(-c2ccncc2)nc2ccccc12 [Compound 60, (2R)-3-phenyl-2-[(2-pyridin-4-ylquinazolin-4-yl)amino]propan-1-ol] |
| ≥ 10 | Oc1ccc(N2CCN(c3nc(-c4ccncc4)nc4ccccc34)CC2)cc1 [Compound 11, 4-[4-(2-pyridin-4-ylquinazolin-4-yl)piperazin-1-yl]phenol] |
| ≥ 10 | CSc1nccc(-c2nc(N[C@H]3c4ccccc4C[C@H]3O)c3ccccc3n2)n1 [Compound 65, (1S,2R)-1-({2-[2-(methylthio)pyrimidin-4-yl]quinazolin-4-yl}amino)-2,3-dihydro-1H-inden-2-ol] |
